Entries after “also recorded” stand apart in the source; their conditions may differ. Read-outs that look alike come from different tables or passages of the source.
Tests used:
CB1R = CB1R (Homo sapiens, UniProt P21554); experiment: CB1R radioligand displacement binding assay (CP55940 radioligand)
Protocol: Heterologous competition binding assays were performed to calculate receptor affinities. Unlabeled SR141716 or SR144528 were used as appropriate controls for non-specific binding (NSB) in the assay. Calculation of the equilibrium dissociation constant (Ki) was performed using the Cheng-Prusoff equation.

CB2R = CB2R (Homo sapiens, UniProt P34972); experiment: CB2R radioligand displacement binding assay (CP55940 radioligand); conditions: Table 1; CP55940 radioligand; read-out: CB2_KI_CP
Sequence of CB2R (P34972 whole entry): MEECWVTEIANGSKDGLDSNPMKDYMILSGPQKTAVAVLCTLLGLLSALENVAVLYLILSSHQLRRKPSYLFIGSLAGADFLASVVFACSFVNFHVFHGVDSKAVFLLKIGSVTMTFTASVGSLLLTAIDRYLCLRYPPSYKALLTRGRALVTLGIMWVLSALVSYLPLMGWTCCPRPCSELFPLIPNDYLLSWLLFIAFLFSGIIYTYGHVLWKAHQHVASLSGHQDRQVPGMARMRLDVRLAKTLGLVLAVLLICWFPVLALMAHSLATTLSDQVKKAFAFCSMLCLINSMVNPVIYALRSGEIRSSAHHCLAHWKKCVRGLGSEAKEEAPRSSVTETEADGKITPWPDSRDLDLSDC

human CB1R (hCB1R) = human CB1R (hCB1R) (Homo sapiens, UniProt P21554); experiment: human CB1R (hCB1R) calcium flux assay; type: cell-based; conditions: Table 1; read-out: Ca Flux % Emax
Sequence of human CB1R (hCB1R) (P21554 whole entry): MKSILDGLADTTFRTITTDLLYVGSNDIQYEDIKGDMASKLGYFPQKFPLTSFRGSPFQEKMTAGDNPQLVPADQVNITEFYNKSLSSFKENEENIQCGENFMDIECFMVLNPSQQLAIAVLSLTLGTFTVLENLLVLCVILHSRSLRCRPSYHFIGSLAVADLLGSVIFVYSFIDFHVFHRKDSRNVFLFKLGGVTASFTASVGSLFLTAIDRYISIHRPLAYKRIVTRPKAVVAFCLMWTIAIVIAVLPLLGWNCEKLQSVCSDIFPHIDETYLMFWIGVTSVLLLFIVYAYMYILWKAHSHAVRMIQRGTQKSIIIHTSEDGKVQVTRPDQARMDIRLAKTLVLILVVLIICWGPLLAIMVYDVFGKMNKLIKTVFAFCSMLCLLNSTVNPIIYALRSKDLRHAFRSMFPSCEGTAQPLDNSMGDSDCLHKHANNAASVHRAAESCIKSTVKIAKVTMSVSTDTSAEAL
From the text: Compounds were first screened for: a) CB1R and CB2R binding, b) CB1R agonist activity using the human CB1R (hCB1R) calcium flux assay, and c) BBB permeability using the Madin-Darby canine kidney (MDCK-MDR1) cell line assay.
The calcium 3 dye assays were run according to manufacturer's specifications (http://www.moleculardevices.com/Products/Assay-Kits/GPCRs/FLIPR-Calcium.html) and as reported in our previous publications^112,113. Briefly, wells of black clear-bottom 96-well tissue culture-treated plates are seeded with 20,000 cells the afternoon before assay. The day of assay, the cells are incubated with the Ca^2+ indicator dye for 1 hr @ 37° C. For antagonist assays, the test compound is preincubated with the cells during the last 10 min of the dye incubation. Basal or unstimulated fluorescence intensity is recorded in the FlexStation @ 37° C. for 13 sec followed by the addition of test compound or CP 55,940 (depending on the assay endpoint). Fluorescence intensity is recorded for an additional 47 sec. The effect of test compound in each well is determined by subtracting the minimum from the maximum fluorescence during the 47-sec recording period.

[1] = S9 fraction stability assay; type: in vitro ADME; conditions: 30 min; rat liver S9, 10 μM
Protocol: Compounds are incubated at 10 μM in rat (male Sprague Dawley) liver S9 at 37° C. Each compound is prepared in ethanol at a concentration of 1 mM. An assay mixture containing S9 (1 mg protein/mL final concentration) and an NADPH regenerating system (NADP [1 mM final], glucose 6-phosphate [5 mM final] and glucose 6-phosphate dehydrogenase [1 U/mL final]) in a buffer consisting of 50 mM KPO4 phosphate buffer, pH 7.4 with 3 mM MgCl2 is prepared and preincubated at 37° C. for 5 min. A 10 μL volume of the 1 mM solution is added to 990 μL of assay mixture in a glass test tube @ 37° C. to initiate the assay. Samples (50 μL) are removed at 0, 15, 30, 60 and 120 min and immediately extracted with 3 volumes (150 μL) of methanol, centrifuged to pellet protein and supernatants transferred to LC/MS vials for analysis.

rats [2] = experiment: Catalepsy (ring) test of the tetrad; type: in vivo, rat
Protocol: Catalepsy (ring) test. Catalepsy was determined with a ring immobility test^154, modified for rats^139, 153. Rats are placed with their forepaws on a horizontal metal ring (12 cm diameter) at a height that allows their hindpaws to just touch the bench surface. Immobility is recorded as the time for the rat to move off the ring with a 100 s cutoff. Rats are tested before vehicle/drug injections and again at various times after injection.

rats [3] = experiment: Rotarod test of the tetrad; type: in vivo, rat
Protocol: Rats were tested for motor function and the ataxic effects of novel drugs as described previously^151-153. To determine drug effects on motor coordination, rats are trained 72 h before the test (3 sessions 24 h apart) to remain for at least 180 s on a rotarod revolving at an acceleration of 4-40 revs over 5 min). Rats are tested immediately before vehicle or drug injections and tested again at 2, 6, 24 and 48 hrs after injection. The time for which the rats are able to remain on the rotarod is recorded up to a cut-off of 5 min.

rats [4] = experiment: Tail-flick test of the tetrad; type: in vivo, rat; conditions: 0.3 mg/kg, intraperitoneal
From the text: A modified Hargreaves apparatus (Model 390, IITC Instr.) is used to measure tail-flick latency (TFL). Radiant heat is directed to a point 3 cm from the tail tip and the TFL observed and timed with a photo cell counter. The intensity of the radiant heat is adjusted for a baseline TFL of approximately 5-7 seconds for naïve rats, with a 25 s cutoff set to avoid tissue damage (see FIG. 3).

[5] = Pharmacokinetic profiling: plasma, CSF and brain levels by LC-MS/MS; type: in vivo, rat
Protocol: Pharmacokinetic profiling of novel compounds is prerequisite to their clinical development. […] Plasma, cerebrospinal fluid (CSF), and brain samples were analyzed by LC-MS/MS and quantified using standard curves prepared from appropriate drug dilutions in fluids obtained from untreated animals.
Measurements of brain levels are a must for putative peripherally-restricted analogs. Total brain levels include drug partitioned into brain lipids+unbound drug in equilibrium with extracellular fluid. Therefore, cerebrospinal fluid (CSF)/plasma ratios are considered to be more precise estimates of brain penetration of a given drug because of the continuity of CSF with extracellular space^174. However, both measures are needed to confirm minimal CNS access and to compare with other reported peripherally-restricted CB1R ligands^110, 111. […] Plasma, brain and CSF samples were obtained at ˜75 min after PrNMI administration. Data presented as mean±SEM, n=3 rats.

[6] = 0.3 mg/kg, intraperitoneal, listed as 13339-145-35

Sequence of CB1R (P21554 whole entry): as above

For `CCCc1ccc(/C=C2\C=C(CCN3CCOCC3)c3ccccc32)c2ccccc12` [Compound 9, 4-{2-[(1E)-1-[(4-propylnaphthalen-1-yl)methylidene]-1H-inden-3-yl]ethyl} morpholine], the Ki (CB1R) was 1 nM, the Ki (CB1R; read-out: CB1R binding affinity (Ki)) was 1.18 nM and the Ki (CB2R) was 1 nM. The Emax (human CB1R (hCB1R)) was 108%, the “S9% remaining @ xy min” value [1] was 39% and the “effect in the catalepsy assay” value (rats [2]; [6]) was “no effect; also recorded: complete lack of effects”. The “Catalepsy % change from pre-drug (0.3 mg/kg) at 1-3 hrs” value (rats [2]; 1-3 hrs) was 0%, the “effect in the rotarod assay” value (rats [3]; [6]) was “no effect; also recorded: complete lack of effects” and the “Rotarod % change from pre-drug (0.3 mg/kg) at 2-3 hr” value (rats [3]; 2-3 hr) was 0%. The “effect in the tail-flick assay” value (rats [4]) was “small effect”, the “penetration into the CNS after systemic administration” value ([5]; plasma, brain and CSF samples) was “minimal penetration” and the Kp ([5]; rat, CSF and plasma, intraperitoneal, 0.3 mg/kg, i.p., ~75 min after administration, mean±SEM, n=3 rats) was 0.001 ± 0.0005. The Kp at 1.25 h ([5]; rat, brain and plasma, ip, 0.3 mg/kg, i.p., ~75 min after administration, mean±SEM, n=3 rats) was 0.182 ± 0.043.

— patent US9656981B2, “Peripherally-acting cannabinoid receptor agonists for chronic pain” (The Regents of the University of California, priority 2012, dated 2017)
